US10688061B2, “Formation of delivery agents targeted to degraded elastic fibers” (priority 2012, dated 2020)

Tested on: Rat aortic vascular smooth muscle cells
Details: positive control (FIG. 22)
Method: Cells were seeded at 10,000 cells/cm^2. At 70% confluency, cells were incubated with nanoparticles for 4 hours following which cell viability was determined using a LIVE/DEAD Cell Viability assay (Molecular Probes, Grand Island, N.Y.). Cells fluorescing green were considered alive while cells fluorescing red were considered dead. Additionally, proliferation of cells was estimated using the MTT (3-(4,5-Dimethyl-2-thiazolyl)-2,5-diphenyl-2H-tetrazolium bromide) assay. Briefly, 5 mg of MTT (Sigma Aldrich, St. Louis, Mo.) was dissolved in 10 ml of serum-free media and added to cells. After 4 hours, media was carefully aspirated and the insoluble formazan dye was collected with dimethyl sulfoxide (DMSO) (Sigma Aldrich, St, Louis, Mo.). Absorbance was read at 560 nm and normalized to control (no treatment) readings.

With CCO [70% ethanol, ethanol] the Cell death was > 95%.
